# Test results published in patent publication US20240252488A1 (KOREA RESEARCH INSTITUTE OF CHEMICAL TECHNOLOGY, priority 2020, published 2024).
# Assays:
# FADD−/− Jurkat cells = test: Necroptosis inhibition assay, TNF-α-induced necroptosis (CellTiter-Glo 2.0); type: cell-based, human; details: TNF-α 15 ng/mL; for Necroptosis inhibition assay (Rescue %) 1 μM: compound 1 μM; for Necroptosis inhibition assay (Rescue %) 10 μM: compound 10 μM
# In short: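 Compound is added to cells at final concentrations of 0.1, 1 and 10 μM and left 30 minutes at room temperature. Necroptosis is induced with 15 ng/mL TNF-α, culture continues 20 to 24 hours at 37° C, and ATP-based luminescence reports viability.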
# MLKL [1] = target: T1, MLKL (Homo sapiens, UniProt Q8NB16); test: Measurement of binding affinity with MLKL receptor (competitive binding assay, Kd); design: made in house; host or cells: HEK 293 cell line (T7 phage in E. coli BL21-derived host is also described)
# T1 sequence (Q8NB16 1-471): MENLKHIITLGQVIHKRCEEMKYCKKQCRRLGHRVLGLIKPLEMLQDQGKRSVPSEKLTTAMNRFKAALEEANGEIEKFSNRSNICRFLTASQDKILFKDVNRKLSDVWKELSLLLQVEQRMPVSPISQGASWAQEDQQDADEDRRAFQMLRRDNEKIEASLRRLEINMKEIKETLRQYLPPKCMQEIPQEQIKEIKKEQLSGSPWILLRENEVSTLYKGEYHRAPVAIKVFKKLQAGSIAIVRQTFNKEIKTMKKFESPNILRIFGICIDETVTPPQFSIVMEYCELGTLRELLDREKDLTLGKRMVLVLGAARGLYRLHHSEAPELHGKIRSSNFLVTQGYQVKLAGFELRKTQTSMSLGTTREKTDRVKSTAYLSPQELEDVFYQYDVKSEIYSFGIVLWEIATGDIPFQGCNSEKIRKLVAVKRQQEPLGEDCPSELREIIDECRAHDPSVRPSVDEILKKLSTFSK
# In short: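 HEK 293-expressed, DNA-tagged MLKL; ligand beads blocked with biotin and SeaBlock/1% BSA/0.05% Tween 20/1 mM DTT buffer. Cpd from 111× DMSO stock, 0.9% DMSO final. Eluted kinase by qPCR → Kd.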
# MLKL [2] = target: T1, MLKL; test: MLKL degradation assay in HepG2 cell line (western blot); type: cell-based; design: endogenous in cells; host or cells: HepG2 or HaCaT; details: cell line not given; for Degradation assay (Degradation %) 1 μM: compound 1 μM; for Degradation assay (Degradation %) 10 μM: compound 10 μM
# Experimental: MLKL degradation ability was evaluated in the following method.
# 1 mL of Human liver cancer cell line (HepG2 cell line) or human skin cell line (HaCaT cell line) was equally distributed into each well at 2.0×10^5 cells/mL in a 12-well cell culture plate. On the next day, the medium was replaced with a medium made so that the final concentration of test compound was 1 or 10 μM (1 mL/well), and incubated in 5% CO2, at 37° C. for 20-24 hours (Thermo scientific, Forma steri-cycle).
# For protein preparation after incubation, cells were washed with 1×TBST, and 60 μL of RIPA lysis buffer containing Halt™ Protease and Phosphatase Inhibitor Cocktail was dispensed into each well. After scraping the cells with a scraper, the cells were recovered, and the pallet was homogenized and reacted on ice for 30 minutes. After the cells were centrifuged at 13,000 rpm, 10 minutes, 4° C., the supernatant was transferred to a new E-tube. For protein quantification, after dispensing sample and BCA (0-4 mg/ml) in a 96 well plate, 100 μL of BCA was dispensed and reacted in a 37° C. incubator for 30 minutes. After measuring the absorbance (SpectraMax, M5e, 562 nm), the amount of the sample was adjusted with the same concentration of protein and 4× Laemmli sample buffer, DW, and reacted at 100° C. for 5 minutes.
# After assembling the MP TGX Precast Gel in the Mini-PROTEAN Tetra Cell, the same protein (10-15 μg) was added in an 8-10 μL volume per well, 1×Tris-Glycine Buffer was added, and loading was performed. After loading was completed, transfer was performed using Pierce G2 Fast Blotter and Pierce 1-Step Transfer Buffer. After completion of the transfer, 10 ml of SuperBlock™ Blocking Buffer was dispensed and reacted at room temperature for 10 minutes. 5% BSA containing the primary antibody was dispensed and reacted over night at 4° C. The next day, washing was performed three times with 1×TBST at room temperature for 10 minutes. 5% BSA containing the secondary antibody was dispensed and reacted at room temperature for 1 hour. Washing was performed three times with 1×TBST at room temperature for 10 minutes. The amount of protein expression was measured using chemiluminescence (LuminoGraph, ATTO).
Kd (MLKL [1]) [nM],Degradation assay (Degradation %) 1 μM (MLKL [2]) [%],Degradation assay (Degradation %) 10 μM (MLKL [2]) [%],Compound,Necroptosis inhibition assay (Rescue %) 1 μM (FADD−/− Jurkat cells) [%],Necroptosis inhibition assay (Rescue %) 10 μM (FADD−/− Jurkat cells) [%],Necroptosis inhibition assay (Rescue %) 1 μM (FADD−/− Jurkat cells; FADD−/− Jurkat cells) [%],Necroptosis inhibition assay (Rescue %) 10 μM (FADD−/− Jurkat cells; FADD−/− Jurkat cells) [%]
12,78.14,81.79,"Nc1ncc(-c2cnn(C3CCN(CCOC4CCN(C(=O)CC5CCN(c6ccc7c(c6)C(=O)N(C6CCC(=O)NC6=O)C7=O)CC5)CC4)CC3)c2)nc1C(=O)O[C@@H](C(=O)Nc1ccc(F)cc1)c1ccccc1 (stereo partly drawn) [TDH-372, (R)-2-((4-fluorophenyl)amino)-2-oxo-1-phenylethyl 3-amino-6-(1-(1-(2-((1-(2-(1-(2-(2,6-dioxopiperidin-3-yl)-1,3-dioxoisoindolin-5-yl)piperidin-4-yl)acetyl)piperidin-4-yl)oxy)ethyl)piperidin-4-yl)-1H-pyrazol-4-yl)pyrazine-2-carboxylate]",26.36,28.54,–,–
5.2,75.31,89.16,"Nc1ncc(-c2cnn([C@@H]3CCN(CC4CCN(C(=O)COc5ccc6c(c5)C(=O)N(C5CCC(=O)NC5=O)C6=O)CC4)C3)c2)nc1C(=O)OC(C(=O)Nc1ccc(F)cc1)c1ccccc1 (stereo partly drawn) [TDH-288, 2-((4-fluorophenyl)amino)-2-oxo-1-phenylethyl 3-amino-6-(1-((3R)-1-((1-(2-((2-(2,6-dioxopiperidin-3-yl)-1,3-dioxoisoindolin-5-yl)oxy)acetyl)piperidin-4-yl)methyl)pyrrolidin-3-yl)-1H-pyrazol-4-yl)pyrazine-2-carboxylate]",70.93,66.54,–,–
23,29.38,12.51,"Nc1ncc(-c2cn(C3CCN(CC4CCN(C(=O)CNc5ccc6c(c5)C(=O)N(C5CCC(=O)NC5=O)C6=O)CC4)CC3)nn2)nc1C(=O)OC(C(=O)Nc1ccc(F)cc1)c1ccccc1 (stereo not drawn) [TDH-223, 2-((4-fluorophenyl)amino)-2-oxo-1-phenylethyl 3-amino-6-(1-(1-((1-((2-(2,6-dioxopiperidin-3-yl)-1,3-dioxoisoindolin-5-yl)glycyl)piperidin-4-yl)methyl)piperidin-4-yl)-1H-1,2,3-triazol-4-yl)pyrazine-2-carboxylate]",34.97,23.64,–,–
3.2,61.41,34.74,"Nc1ncc(-c2cnn(C3CCN(CCC4CCN(c5ccc6c(c5)C(=O)N(C5CCC(=O)NC5=O)C6=O)CC4)CC3)c2)nc1C(=O)O[C@@H](C(=O)Nc1ccc(F)cc1)c1ccccc1 (stereo partly drawn) [TDH-203, (R)-2-((4-fluorophenyl)amino)-2-oxo-1-phenylethyl 3-amino-6-(1-(1-(2-(1-(2-(2,6-dioxopiperidin-3-yl)-1,3-dioxoisoindolin-5-yl)piperidin-4-yl)ethyl)piperidin-4-yl)-1H-pyrazol-4-yl)pyrazine-2-carboxylate]",64.32,40.46,–,–
4.3,89.77,88.59,"Nc1ncc(-c2cnn(C3CCN(CCC4CCN(C(=O)Cc5cccc(NC6=CC(=O)N(C7CCC(=O)NC7=O)C6=O)c5)CC4)CC3)c2)nc1C(=O)O[C@@H](C(=O)Nc1ccc(F)cc1)c1ccccc1 (stereo partly drawn) [TDH-518, (R)-2-((4-fluorophenyl)amino)-2-oxo-1-phenylethyl 3-amino-6-(1-(1-(2-(1-(2-(3-((1-(2,6-dioxopiperidin-3-yl)-2,5-dioxo-2,5-dihydro-1H-pyrrol-3-yl)amino)phenyl)acetyl)piperidin-4-yl)ethyl)piperidin-4-yl)-1H-pyrazol-4-yl)pyrazine-2-carboxylate]",–,–,12.44,−8.57

# Continued, compound first:
Compound,Kd (MLKL [1]) [nM],Degradation assay (Degradation %) 1 μM (MLKL [2]) [%],Degradation assay (Degradation %) 10 μM (MLKL [2]) [%],Necroptosis inhibition assay (Rescue %) 1 μM (FADD−/− Jurkat cells) [%],Necroptosis inhibition assay (Rescue %) 10 μM (FADD−/− Jurkat cells) [%],Necroptosis inhibition assay (Rescue %) 1 μM (FADD−/− Jurkat cells; FADD−/− Jurkat cells) [%],Necroptosis inhibition assay (Rescue %) 10 μM (FADD−/− Jurkat cells; FADD−/− Jurkat cells) [%]
"Nc1ncc(-c2cnn(C3CCN(CCOCCOCCNC(=O)C4CCN(c5cccc6c5C(=O)N(C5CCC(=O)NC5=O)C6=O)CC4)CC3)c2)nc1C(=O)N[C@@H](C(=O)Nc1ccc(F)cc1)c1ccccc1 (stereo partly drawn) [TDH-213, 3-amino-6-(1-(1-(2-(2-(2-(1-(2-(2,6-dioxopiperidin-3-yl)-1,3-dioxoisoindolin-4-yl)piperidine-4-carboxamido)ethoxy)ethoxy)ethyl)piperidin-4-yl)-1H-pyrazol-4-yl)-N-((R)-2-((4-fluorophenyl)amino)-2-oxo-1-phenylethyl)pyrazine-2-carboxamide]",330,4.45,8.28,18.34,44.98,–,–
"Nc1ncc(-c2cnn(C3CCN(CC4CN(C(=O)CNc5cccc6c5C(=O)N(C5CCC(=O)NC5=O)C6=O)CCO4)CC3)c2)nc1C(=O)OC(C(=O)Nc1ccc(F)cc1)c1ccccc1 (stereo not drawn) [TDH-306, 2-((4-fluorophenyl)amino)-2-oxo-1-phenylethyl 3-amino-6-(1-(1-((4-((2-(2,6-dioxopiperidin-3-yl)-1,3-dioxoisoindolin-4-yl)glycyl)morpholin-2-yl)methyl)piperidin-4-yl)-1H-pyrazol-4-yl)pyrazine-2-carboxylate]",5.4,62.87,45.31,34.35,43.09,–,–
"Nc1ncc(-c2cnn(C3CCN(C(=O)CC4CCN(C(=O)CNc5cccc6nnn(C7CCC(=O)NC7=O)c(=O)c56)CC4)CC3)c2)nc1C(=O)O[C@@H](C(=O)Nc1ccc(F)cc1)c1ccccc1 (stereo partly drawn) [TDH-411, (R)-2-((4-fluorophenyl)amino)-2-oxo-1-phenylethyl 3-amino-6-(1-(1-(2-(1-((3-(2,6-dioxopiperidin-3-yl)-4-oxo-3,4-dihydrobenzo[d][1,2,3]triazin-5-yl)glycyl)piperidin-4-yl)acetyl)piperidin-4-yl)-1H-pyrazol-4-yl)pyrazine-2-carboxylate]",5.7,53.86,44.78,–,–,9.91,10.81
"Nc1ncc(-c2cnn(C3CCN(CCCCCCNC(=O)C4CCN(c5cccc6c5C(=O)N(C5CCC(=O)NC5=O)C6=O)CC4)CC3)c2)nc1C(=O)O[C@@H](C(=O)Nc1ccc(F)cc1)c1ccccc1 (stereo partly drawn) [TDH-108, (R)-2-((4-fluorophenyl)amino)-2-oxo-1-phenylethyl 3-amino-6-(1-(1-(6-(1-(2-(2,6-dioxopiperidin-3-yl)-1,3-dioxoisoindolin-4-yl)piperidine-4-carboxamido)hexyl)piperidin-4-yl)-1H-pyrazol-4-yl)pyrazine-2-carboxylate]",4.4,48.06,43.66,75.49,43.94,–,–
